The nature of data set [1]: Cell viability (MTT test) in B16 murine melanoma cells. In kind it is cell-based. The note with it: mouse, B16 murine melanoma cells, compounds at 25 μM, percentage of untreated cells. From the text: Our initial studies delivered some key findings regarding the compounds’ cytotoxicity on B16 murine melanoma cells (Table 1). Compounds 5 were proposed to trigger cell death through accumulation of pro-apoptotic Cer. […] Comparison of C-Oct piperidine 6b, resulting in 85% cell viability, with the parent C-Oct pyrrolidine 5b clearly indicated however that the ring-expansion of the iminosugar framework almost completely abolished the impact on cell viability.
Background: Tetrazolium dyes change colour on reduction, which living cells bring about.

In data set [2] the target is T1, glucosylceramide synthase (GCS) (Mus musculus, UniProt O88693).
T1 construct: monitored by incubating intact cells for 4 h with 5 μM NBD-C6-ceramide; endogenous in cells; host or cells: murine melanoma cells
T1 sequence (O88693 1-394): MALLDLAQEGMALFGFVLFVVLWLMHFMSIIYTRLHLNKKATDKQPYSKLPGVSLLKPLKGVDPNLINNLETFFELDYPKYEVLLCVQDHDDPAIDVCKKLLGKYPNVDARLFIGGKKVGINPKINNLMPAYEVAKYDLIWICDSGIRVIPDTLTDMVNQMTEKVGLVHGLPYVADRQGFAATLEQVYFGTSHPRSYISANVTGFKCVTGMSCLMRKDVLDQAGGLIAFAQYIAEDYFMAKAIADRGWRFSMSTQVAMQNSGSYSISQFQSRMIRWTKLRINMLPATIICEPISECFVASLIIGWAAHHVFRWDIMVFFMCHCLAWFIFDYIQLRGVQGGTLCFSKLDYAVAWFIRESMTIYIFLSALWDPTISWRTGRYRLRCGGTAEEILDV
As to the kind of experiment: Cellular inhibition assay against glucosylceramide synthase (NBD-C6-ceramide conversion to GlcCer). In kind it is cell-based. The note with it: B16 murine melanoma cells incubated overnight with 25 μM compound, biosynthesis of GlcCer. The protocol: Evaluation of GCS inhibition was performed as previously reported. The in vivo metabolism of sphingolipids was monitored by incubating intact cells for 4 h with 5 μM NBD-C6-ceramide, delivered by ethanolic injection. Cells were then harvested, lysed in a small volume of water (0.5 mL) and lipids were extracted by adding 2.5 mL of chloroform/methanol (2:1, v/v). After centrifugation (1000× g, 5 min), the lower phases were dried under nitrogen and subjected to TLC by using chloroform/methanol/32% ammonia (70:30:5, v/v) as the mobile phase. NBD-C6-GlcCer was eluted from the silica and quantified spectrofluorometrically (λex = 470 nm and λem = 530 nm) by comparison with known amounts of NBD-lipid.

Data set [3] has as its target T2, recombinant GBA (Cerezyme) (Homo sapiens, UniProt P04062, R534H).
T2 construct: purchased Sanofi Genzyme, Cambridge, MA, USA
T2 sequence (P04062 40-536 R534H): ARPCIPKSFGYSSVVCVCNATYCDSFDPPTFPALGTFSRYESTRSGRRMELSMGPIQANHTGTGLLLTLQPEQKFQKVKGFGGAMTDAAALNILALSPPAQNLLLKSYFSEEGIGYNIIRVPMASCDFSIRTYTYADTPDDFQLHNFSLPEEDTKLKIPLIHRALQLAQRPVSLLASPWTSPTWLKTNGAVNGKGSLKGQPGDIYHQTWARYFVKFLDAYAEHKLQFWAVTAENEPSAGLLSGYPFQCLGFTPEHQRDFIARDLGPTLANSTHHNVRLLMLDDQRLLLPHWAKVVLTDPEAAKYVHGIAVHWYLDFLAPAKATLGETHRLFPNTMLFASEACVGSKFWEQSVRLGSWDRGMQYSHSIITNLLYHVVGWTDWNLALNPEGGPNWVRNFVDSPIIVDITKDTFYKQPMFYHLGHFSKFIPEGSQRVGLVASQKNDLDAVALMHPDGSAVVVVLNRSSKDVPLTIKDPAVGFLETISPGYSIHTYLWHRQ
Put plainly: Thermal stabilization assay using recombinant β-glucocerebrosidase. In kind it is biochemical. Conditions: 0.05 µM compound, 48 °C, 60 min; ratio of relative enzymatic activity with inhibitor vs control. Here is the method: We first assessed the stabilization of recombinant GBA under thermal denaturation conditions as described previously. […] The GBA was incubated in 100 mM McIlvaine buffer (pH 5.4) containing 0.25% sodium taurocholate and 0.1% Triton X-100 for 60 min and the remaining enzyme activity was determined with 4-methylumbellifery-β-D-glucopyranoside as substrate. The enzyme activity was lost within 60 min under incubation without test samples (9% activity remained at 60 min). […] The reduced apparent stabilisation at 0.5 µM may reflect an undesired inhibitory effect of the compounds at higher concentration.
The enzyme assay methods were similar to those previously reported. Commercial Cerezyme aliquots (38 µL, 2 mg/mL in MacIlvaine Buffer pH = 7.0) were incubated with three different concentrations of chemical chaperone at 48 °C.
Figure 5 Ability of compounds 6b and 8 to stabilize GBA. Enzyme activity was tested in the absence or presence of the inhibitor at 0.5, 0.05 and 0.005 µM. Data are expressed as the stabilization ratio (the ratio of relative enzymatic activities measured in the presence of inhibitor vs control) of after thermal denaturation (48 °C) for 60 min at the indicated inhibitor concentrations (µM).

This is an account of results in article PMC6359432, “Selective Targeting of the Interconversion between Glucosylceramide and Ceramide by Scaffold Tailoring of Iminosugar Inhibitors” (Molecules, 2019).

Broadly, the viability is the share of living cells, or the viability signal relative to a control. Higher therefore signals less harm to the cells.

For the compound `CCCCCCCC[C@H]1CNC[C@@H](O)[C@@H]1O` [6b, (3R,4R,5S)-5-Octylpiperidine-3,4-diol], the viability at 25 µM in data set [1] was found to be 85%. In addition, in data set [2], the “Enzyme Inhibition GCS” value is “no detectable impact on GlcCer biosynthesis”. In addition, in data set [3], the “stabilization ratio of GBA after thermal denaturation” value is 4.4.
